Experimental data published in patent US20100168228A1, “NOVEL CHEMOTHERAPEUTIC AGENTS AGAINST INFLAMMATION AND CANCER” (RELIANCE LIFE SCIENCES PVT. LTD., priority 2006, published 2010).

Assays:
[1] = tested on: Jurkat cells; experiment: Nuclear staining assay (propidium iodide), Jurkat; type: cell-based, human; settings: 24 h
Experimental: Nuclear staining assay: After treatment with the compound for 24 h, Jurkat cells were washed once with ice-cold EDTA/PBS (5 mM) and fixed with 70% ethanol for 1 h at RT. Fixed cells were placed on slides and stained with PI (5 μg/ml) with RNase A (1 mg/ml) for 20 mins. After decolourization with water, nuclear morphology of cells was examined by fluorescence microscopy.

[2] = tested on: U937 cells; experiment: Cell cycle analysis, U937; type: cell-based, human; settings: 24 h
Experimental: FIG. 17: Differential effect of compound 27 on the cell cycle distribution in U937 cell line. Cells were treated with different concentration of the compound for 24 h and after staining with PI, cell cycle distribution was analyzed using Flow Cytometer. The data indicates the percentage of cells in each phase of the cell cycle.
Cell Cycle Analysis: Cells (log phase culture) were treated with vehicles alone (similar volumes of DMSO) or with the compound (various concentrations) to be tested for 24 h. Untreated cells were also included in this experiment for comparison. After treatments, the cells were harvested and washed with cold PBS. Cells were then resuspended in cold PBS (300 μl) and 100% chilled ethanol (700 μl), vortexed, and incubated at room temperature for 1 h. Samples were centrifuged at 200×g for 5 minutes and the supernatant was removed. A solution containing propidium iodide (100 μg/ml) and RNase A (1 mg/ml) was added to the samples and incubated for 1 h at room temperature. Samples were then transferred to 12×75 mm polystyrene tubes and analyzed on flow cytometer. Flow cytometry analyses were done on FACSCalibur (Becton Dickinson, San Jose, Calif.) and data were analyzed using CellQuest analysis software.

[3] = tested on: TNFα; experiment: Bioassay of TNFα production by LPS activated RAW 264.7 macrophages using L929 cell line; type: cell-based; settings: Mus musculus; L929 + ActD + supernatant from LPS + compound (10 μM) treated RAW 264.7 macrophage; crystal violet; mean ± S.D. of triplicate; read-out: PERCENTAGE CELL SURVIVAL ± S.D.
Experimental: Measurement of TNFα in culture medium or supernatant is performed using immunoassay and bioassay. Bioassay was used for the measurement of bioactive TNFα production in the culture medium.
TNFα secretion into the medium by LPS activated macrophage was assayed using L929 tumorigenic murine cells (ATCC) specifically sensitive to TNFα. L929 cell cytotoxicity assay was performed by a modified method (Sano et al., The Journal of Immunology, 1999, 163: 387-395 The Journal of Immunology, 1999, 163: 387-395) based on that described elsewhere (Flick D A, Gifford G E. J Immunol Methods. 1984 Mar. 30; 68(1-2): 167-175). Briefly, the L929 cells (log phase cells) were seeded into a flat bottom 96 well plates (6×10^4/well) in 100 μl volume of RPMI 1640 containing 2% FCS and incubated overnight at 37° C. in a 5% CO2 incubator. A working dilution of the culture supernatant collected from LPS (200 ng/ml) activated macrophage in a volume of 100 μl per well was first tested to obtain 70-75% cytotoxicity equivalent to […] of recombinant TNFα standard to the TNFα sensitive L929 cell line. After incubation of the L929 cells appropriate fixed dilution of the culture supernatant collected from the compound treated (10 μM) wells, containing the LPS stimulated macrophages in a volume of 100 μl with 2 μg/ml Actinomycin D (Act D) was taken and added to the L929 cells and the cells were incubated at room temperature for 15 min followed by 18 h incubation at 37° C. overnight with 5% CO2. On the next day the medium was removed and the cells were stained with 0.2% (w/v) crystal violet for 10 minutes. The wells were gently rinsed with water, and 33% acetic acid (100 μl/well) was added to extract the retained crystal violet. The absorbance at 570 nm was finally measured.
Tumor necrosis factor-α can cause direct cytotoxicity to the lung fibroblast cell line (L929). Bioassay of TNF α is designated on the basis of this cytotoxicity of TNF α, which can be used for the identification of murine TNF α activity in tissue culture supernatants. Culture supernatant collected from the synthetic molecules treated well containing LPS stimulated macrophage modulated the extent of cytotoxicity to the L929 cells (see Table 1).

[4] = tested on: COX-2; experiment: COX-2 protein expression (ELISA); type: cell-based
Experimental: FIG. 6: Effect of CAMVE on TNF or LPS induced COX-2 expression. Cells were pretreated with indicated concentrations of CAMVE for 3 h and then stimulated with either TNF (0.1 nM) or SA-LPS (100 ng/ml) for 12 h. After harvesting the treated cells, the cellular lysates were checked for COX-2 protein expression by an enzyme immunoassay as described in the “Materials and Methods”.
Quantitative detection of Cox 2 protein expression by activated cells was done by an enzyme-linked immunosorbent sandwich assay using Zymed COX-2 ELISA kit. 1×10^7 cells were treated with different concentrations of CAMVE and stimulator and incubated at 37° C. for 12 hrs. […] The protein concentrations of the supernatants were measured by Bradford assay (Anal. Biochem. 72:248-254 (1976). 200 μg/100 μl of the protein was assayed per sample according to the kit protocol. Briefly, 100 μl of the sample and the standard were put in the pre antibody coated wells and incubated at 1 h at 37° C. After three washes 100 μl of the HRP conjugated antibody was added and incubated for 30 m is at 4° C. After washing, […] of the TMB substrate was added and incubated for 30 min at room temperature in dark. The reaction was stopped and the absorbance was read at 450 nm.

Compound	nuclear morphology after propidium iodide staining [1]	sub G1 population ([2]; U937, 10 μM) [%]	proportion of cells in the S phase ([2]; U937, 5 and 10 μM, increase from-to)	proportion of cells in the G2/M phase ([2]; U937, 100, 500, 5000, 10000 nM)	sub G1 population ([2]; U937, 100 and 500 nM)	viability at 10 µM [3] [%]	COX-2 protein induction by compound alone ([4]; CAMVE alone)	TNF or LPS induced COX-2 protein expression ([4]; pretreated 3 h, TNF 0.1 nM or SA-LPS 100 ng/ml 12 h)
COc1cc([C@@H]2Oc3c(OC)cc(/C=C/C(=O)O)cc3[C@H]2C(=O)O)ccc1O [compound 27, 5-[(E)-2-carboxyvinyl]-2β-(4-hydroxy-3-methoxyphenyl)-7-methoxy-2,3-dihydro-1-benzofuran-3α-carboxylic acid]	typical apoptotic nuclei	~30	26%-35%	no significant increase in the proportion of cells in the G2/M phase	no increase	46.5 ± 1.02		
COC(=O)c1ccc(OC(=O)/C=C/c2ccc(O)c(O)c2)c(OC)c1 [compound 1, Methyl 4-{[(2E)-3-(3,4-dihydroxyphenyl)prop-2-enoyl]oxy}-3-methoxybenzoate]						73.2 ± 1.77	did not show any induction of COX 2 protein	decreased with increasing concentration of CAMVE treatment
